We go through 9 compounds from patent US7642244B2, “Neuropeptide-2 receptor (Y-2R) agonists and uses thereof” (Hoffmann-La Roche Inc., priority 2005, dated 2010).

The test system of experiment [1] is hypothalamic slices. The settings on record: hypothalamic slices in vitro; cited from earlier work.
The target in experiment [2] is T1, Y1R (Homo sapiens, UniProt P25929).
T1 sequence (P25929 1-384): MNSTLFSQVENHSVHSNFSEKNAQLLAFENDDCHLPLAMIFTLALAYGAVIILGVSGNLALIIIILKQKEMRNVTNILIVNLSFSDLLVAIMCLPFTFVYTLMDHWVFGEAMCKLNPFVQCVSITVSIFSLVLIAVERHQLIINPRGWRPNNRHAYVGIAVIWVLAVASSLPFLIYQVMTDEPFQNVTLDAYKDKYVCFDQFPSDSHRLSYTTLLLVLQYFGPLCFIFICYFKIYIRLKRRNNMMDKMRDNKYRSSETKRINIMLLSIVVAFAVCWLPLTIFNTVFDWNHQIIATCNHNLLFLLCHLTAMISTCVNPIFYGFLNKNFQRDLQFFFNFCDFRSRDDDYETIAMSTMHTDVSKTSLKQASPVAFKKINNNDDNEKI
Kind of experiment: Calcium flux assay (FLIPR), Y1R. The format is cell-based. On the technique in general: A change in cytosolic calcium serves as a functional read-out for many receptors and channels.
Protocol: (§1) During the incubation, test compounds were prepared at 3.5× the desired concentration in HBSS (20 mM HEPES)/0.05% BSA/1% DMSO and transferred to a 384-well plate for use on FLIPR® (FILPR, Fluorescent Imaging Plate Reader, is a registered trademark of Molecular Devices Corp.).
(§2) After incubation, both the cell and compound plates were brought to the FLIPR® and 20 μL of the diluted compounds were transferred to the cell plates by the FLIPR®. During the assay, fluorescence readings were taken simultaneously from all 384 wells of the cell plate every 1.5 seconds. Five readings were taken to establish a stable baseline, and then 20 μl of sample was rapidly (30 μl/sec) and simultaneously added to each well of the cell plate. The fluorescence was continuously monitored before, during and after sample addition for a total elapsed time of 100 seconds. Responses (increase in peak fluorescence) in each well following addition was determined. The initial fluorescence reading from each well, prior to ligand stimulation, was used as a zero baseline value for the data from that well. The responses were expressed as a percentage of maximal response of the positive control.

Experiment [3] deals with Y4R (Homo sapiens, UniProt P50391). Kind of experiment: Calcium flux assay (FLIPR), Y4R. The format is cell-based.
Y4R, sequence (P50391 whole entry): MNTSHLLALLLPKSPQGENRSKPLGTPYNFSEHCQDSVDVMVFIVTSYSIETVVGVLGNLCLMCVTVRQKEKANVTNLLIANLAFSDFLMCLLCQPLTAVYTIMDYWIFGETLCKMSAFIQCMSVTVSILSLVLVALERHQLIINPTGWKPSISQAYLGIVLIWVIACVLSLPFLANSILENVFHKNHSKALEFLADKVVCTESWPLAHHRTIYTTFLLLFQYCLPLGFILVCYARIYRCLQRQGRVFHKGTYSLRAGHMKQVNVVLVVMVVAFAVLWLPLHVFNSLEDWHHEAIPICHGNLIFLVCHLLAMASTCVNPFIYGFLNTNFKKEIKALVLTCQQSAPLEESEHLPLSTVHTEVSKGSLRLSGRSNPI
Protocol: as §1, §2
The target in experiment [4] is T2, Y5R (Homo sapiens, UniProt Q15761).
T2 sequence (Q15761 1-445): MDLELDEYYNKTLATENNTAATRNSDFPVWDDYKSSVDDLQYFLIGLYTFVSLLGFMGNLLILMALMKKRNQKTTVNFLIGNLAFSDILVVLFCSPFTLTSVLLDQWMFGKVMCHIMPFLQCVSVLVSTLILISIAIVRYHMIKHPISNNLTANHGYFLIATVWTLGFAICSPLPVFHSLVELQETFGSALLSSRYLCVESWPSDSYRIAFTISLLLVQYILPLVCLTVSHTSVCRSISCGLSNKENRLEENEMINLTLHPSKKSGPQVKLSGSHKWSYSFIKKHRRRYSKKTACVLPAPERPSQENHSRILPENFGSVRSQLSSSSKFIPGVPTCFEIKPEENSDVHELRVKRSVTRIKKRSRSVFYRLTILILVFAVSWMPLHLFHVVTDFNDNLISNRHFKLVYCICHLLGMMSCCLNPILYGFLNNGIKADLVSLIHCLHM
Kind of experiment: Calcium flux assay (FLIPR), Y5R. It counts as cell-based.
Protocol: as §1, §2

Experiment [5] deals with male DIO rats. The settings on record: 5 and 10 mg/kg, q48 hr, s.c., 3-week treatment, male DIO rats (FIG. 23).
Protocol: Male Sprague Dawley rats (7 weeks old) were obtained from Charles River Laboratories (USA) and housed in a temperature and humidity controlled environment with a 12 h light:12 h dark cycle. The rats were given ad libitum access to a high fat chow diet (HFD; 60% of dietary kcal as fat, Research Diets D12492) and water throughout the study. Following 7 weeks on the HFD, rats were sorted by body weight and caged singly.
All data shown are the mean ± standard error (s.e.m.). Statistical evaluation of the data was carried out using one-way ANOVA, followed by Dunnett's test to determine where statistically significant differences existed between vehicle and drug treated groups. Differences were considered statistically significant at P<005. Data analysis was carried out with GraphPad software (GraphPad Prism).
The test system of experiment [6] is female db/db mice. The settings on record: acute, 1 and 10 mg/kg, s.c., 28 hr prior to OGTT, female db/db mice (FIG. 24).
Protocol: Female db/db mice (C57BL/KsJ-Lep^db/db, Jackson Laboratories, USA) were at 6 weeks of age when received. The mice were housed in a temperature and humidity controlled environment with a 12 h light: 12 h dark cycle, and given access to food (Purina rodent chow 5008) and water ad libitum. The mice (12-weeks old) were pre-bled 4 days prior to study, and those within a narrow range of fasted blood glucose levels were selected for the study in order to minimize variability between vehicle control and drug-treated groups. […] Blood samples were collected from tail clips following a 6 hr fast for determination of baseline values (t=0 min). The mice were then gavaged with an oral bolus of glucose (1 g/kg), and additional blood samples were collected at regular intervals (t=30, 60 and 120 min) for glucose measurement. […] The area under the curve (AUC0-120 min) was determined using the trapezoid method.
All data shown are the mean ± standard deviation (s.d.). Statistical evaluation of the data was carried out using one-way ANOVA, followed by Dunnett's test to determine where statistically significant differences existed between vehicle and drug treated groups. […] Data analysis was carried out with GraphPad software (GraphPad Prism).
The test system of experiment [7] is female db/db mice. The settings on record: q48 hr, s.c.
Protocol: Female db/db mice (C57BL/KsJ-Lep^db/db, Jackson Laboratories, USA) were at 6 weeks of age when received. The mice were housed in a temperature and humidity controlled environment with a 12 h light: 12 h dark cycle, and given access to food (Purina rodent chow 5008) and water ad libitum. The mice (9 week old) were pre-bled 4 days prior to drug treatment, and those within a narrow range of fasted blood glucose levels were selected for the study in order to minimize variability between vehicle control and drug-treated groups. […] Basal fasting (2 to 6 hr) blood glucose measurements were conducted weekly. On study day 20, an oral glucose tolerance test was performed following a 6 hr fast. Blood samples were collected from tail clips for determination of baseline values (t=0 min). The mice were then gavaged with an oral bolus of glucose (1 g/kg), and additional blood samples were collected at regular intervals (t=30, 60, and 120 min) for glucose measurement. […] The area under the curve (AUC0-120 min) was determined using the trapezoid method.
All data shown are the mean ± standard deviation (s.d.). Statistical evaluation of the data was carried out using one-way ANOVA, followed by Dunnett's test to determine where statistically significant differences existed between vehicle and drug treated groups. Differences were considered statistically significant at P<0.05. […]

Read-outs that look alike come from different tables or passages of the source. Where only a bound is given, the exact number is not on record here.

Regarding `N=C(N)NCCC[C@H](NC(=O)CC1(CC(=O)N2CCN(C3c4ccccc4NC(=O)c4ccccc43)CC2)CCCC1)C(=O)NCCn1c(=O)n(-c2ccccc2)n(-c2ccccc2)c1=O` (stereo partly shown) [BIIE0246], the NPY release entry in experiment [1] was “increases NPY release”.
Turning to `CC[C@H](C)[C@H](N)C(=O)N[C@@H](CCCCN)C(=O)N1CCN(c2ccc3ncn(CC(=O)N[C@@H](CCCNC(=N)N)C(=O)N[C@@H](Cc4c[nH]cn4)C(=O)N[C@@H](Cc4ccc(O)cc4)C(=O)N[C@@H](CC(C)C)C(=O)N[C@@H](CC(N)=O)C(=O)N[C@@H](Cc4c[nH]c5ccccc45)C(=O)N[C@H](C(=O)N[C@H](C(=O)N[C@@H](CCCNC(=N)N)C(=O)N[C@@H](CCC(N)=O)C(=O)N(C)[C@@H](CCCNC(=N)N)C(=O)N[C@@H](Cc4ccc(O)cc4)C(N)=O)[C@@H](C)O)C(C)C)c(=O)c3c2)CC1` [Example 25], the EC50 was 0.298 µM in experiment [2], over 5 µM in experiment [3] and over 5 µM in experiment [4].
For `CCCC[C@H](NC(=O)[C@@H](N)[C@@H](C)CC)C(=O)N1CCN(c2ccc3ncn(CC(=O)N[C@@H](CCCNC(=N)N)C(=O)N[C@@H](Cc4c[nH]cn4)C(=O)N[C@@H](Cc4ccc(O)cc4)C(=O)N[C@@H](CC(C)C)C(=O)N[C@@H](CC(N)=O)C(=O)N[C@@H](Cc4c[nH]c5ccccc45)C(=O)N[C@H](C(=O)N[C@H](C(=O)N[C@@H](CCCNC(=N)N)C(=O)N[C@@H](CCC(N)=O)C(=O)N(C)[C@@H](CCCNC(=N)N)C(=O)N[C@@H](Cc4ccc(O)cc4)C(N)=O)[C@@H](C)O)C(C)C)c(=O)c3c2)CC1` [Example 26], the EC50 in experiment [2], in experiment [3] and in experiment [4] was over 5 µM each time.
As for `CC[C@H](C)[C@H](NC(C)=O)C(=O)N[C@@H](CCCCN)C(=O)N1CCN(c2ccc3ncn(CC(=O)N[C@@H](CCCNC(=N)N)C(=O)N[C@@H](Cc4c[nH]cn4)C(=O)N[C@@H](Cc4ccc(O)cc4)C(=O)N[C@@H](CC(C)C)C(=O)N[C@@H](CC(N)=O)C(=O)N[C@@H](Cc4c[nH]c5ccccc45)C(=O)N[C@H](C(=O)N[C@H](C(=O)N[C@@H](CCCNC(=N)N)C(=O)N[C@@H](CCC(N)=O)C(=O)N(C)[C@@H](CCCNC(=N)N)C(=O)N[C@@H](Cc4c(F)cc(O)cc4F)C(N)=O)[C@@H](C)O)C(C)C)c(=O)c3c2)CC1` [Example 27], the concentration for a half-maximal effect (EC50) in experiment [2] and in experiment [3] was over 5 µM throughout.
With `CCCCC(=O)N[C@H](C(=O)N[C@@H](CCCCN)C(=O)N1CCN(c2ccc3ncn(CC(=O)N[C@@H](CCCNC(=N)N)C(=O)N[C@@H](Cc4c[nH]cn4)C(=O)N[C@@H](Cc4ccc(O)cc4)C(=O)N[C@@H](CC(C)C)C(=O)N[C@@H](CC(N)=O)C(=O)N[C@@H](Cc4c[nH]c5ccccc45)C(=O)N[C@H](C(=O)N[C@H](C(=O)N[C@@H](CCCNC(=N)N)C(=O)N[C@@H](CCC(N)=O)C(=O)N(C)[C@@H](CCCNC(=N)N)C(=O)N[C@@H](Cc4ccc(O)cc4)C(N)=O)[C@@H](C)O)C(C)C)c(=O)c3c2)CC1)[C@@H](C)CC` [Example 29], the half-maximal effective concentration (EC50) in experiment [2], in experiment [3] and in experiment [4] was over 5 µM each time.
Consider `CC[C@H](C)[C@H](NC(=O)C(C)(C)C)C(=O)N[C@@H](CCCCN)C(=O)N1CCN(c2ccc3ncn(CC(=O)N[C@@H](CCCNC(=N)N)C(=O)N[C@@H](Cc4c[nH]cn4)C(=O)N[C@@H](Cc4ccc(O)cc4)C(=O)N[C@@H](CC(C)C)C(=O)N[C@@H](CC(N)=O)C(=O)N[C@@H](Cc4c[nH]c5ccccc45)C(=O)N[C@H](C(=O)N[C@H](C(=O)N[C@@H](CCCNC(=N)N)C(=O)N[C@@H](CCC(N)=O)C(=O)N(C)[C@@H](CCCNC(=N)N)C(=O)N[C@@H](Cc4ccc(O)cc4)C(N)=O)[C@@H](C)O)C(C)C)c(=O)c3c2)CC1` [Example 30], for which the EC50 in experiment [2], in experiment [3] and in experiment [4] was over 5 µM each time.
As for `CC[C@H](C)[C@H](NC(=O)CC1CCCCC1)C(=O)N[C@@H](CCCCN)C(=O)N1CCN(c2ccc3ncn(CC(=O)N[C@@H](CCCNC(=N)N)C(=O)N[C@@H](Cc4c[nH]cn4)C(=O)N[C@@H](Cc4ccc(O)cc4)C(=O)N[C@@H](CC(C)C)C(=O)N[C@@H](CC(N)=O)C(=O)N[C@@H](Cc4c[nH]c5ccccc45)C(=O)N[C@H](C(=O)N[C@H](C(=O)N[C@@H](CCCNC(=N)N)C(=O)N[C@@H](CCC(N)=O)C(=O)N(C)[C@@H](CCCNC(=N)N)C(=O)N[C@@H](Cc4ccc(O)cc4)C(N)=O)[C@@H](C)O)C(C)C)c(=O)c3c2)CC1` [Example 31], the EC50 in experiment [2], in experiment [3] and in experiment [4] was over 5 µM throughout.
As to `CC[C@H](C)[C@H](NC(=O)c1ccccc1)C(=O)N[C@@H](CCCCN)C(=O)N1CCN(c2ccc3ncn(CC(=O)N[C@@H](CCCNC(=N)N)C(=O)N[C@@H](Cc4c[nH]cn4)C(=O)N[C@@H](Cc4ccc(O)cc4)C(=O)N[C@@H](CC(C)C)C(=O)N[C@@H](CC(N)=O)C(=O)N[C@@H](Cc4c[nH]c5ccccc45)C(=O)N[C@H](C(=O)N[C@H](C(=O)N[C@@H](CCCNC(=N)N)C(=O)N[C@@H](CCC(N)=O)C(=O)N(C)[C@@H](CCCNC(=N)N)C(=O)N[C@@H](Cc4ccc(O)cc4)C(N)=O)[C@@H](C)O)C(C)C)c(=O)c3c2)CC1` [Example 32], the EC50 in experiment [2], in experiment [3] and in experiment [4] was over 5 µM throughout.
Take “Ile((PEG-30,000)CH2CH2NHCOCH2CH2CO)(ε)Lys-Pqa-Arg-His-Tyr-Leu-Asn-Trp-Val-Thr-Arg-Gln-(NMe)Arg-Tyr-NH2 [Example 41]”: the “body weight gain versus vehicle-treated animals” value in experiment [5] is recorded as “significant decrease in body weight gain”. Further, the “glucose excursion in response to an oral glucose challenge” value in experiment [6] is reported as “significantly decreased glucose excursion”; in experiment [7] (day 20, 3 and 10 mg/kg, female db/db mice (FIG. 25B)), “significantly decreased glucose excursion”. Further, the “basal blood glucose levels versus vehicle-treated animals” value in experiment [7] (1, 3 and 10 mg/kg, day 8, 15 and 21, female db/db mice (FIG. 25A)) is “reduced basal blood glucose levels”.

For orientation: EC50 means the concentration that produces a half-maximal response.
